Measured values as given in patent US10576102B2, “KOC1-derived peptide and vaccine including same” (ONCOTHERAPY SCIENCE, INC., priority 2014, dated 2020).
“Also recorded” adds a separate entry of the source.

Assays:
peptide-pulsed C1R-A01 [1] = assay: In vitro CTL induction, IFN-gamma ELISPOT assay (HLA-A*0101); assay type: cell-based, human; conditions: CTLs induced with peptide-pulsed DCs from HLA-A*0101-positive volunteers; day 21; vs peptide-pulsed C1R-A01, compared with unpulsed control
Description: C1R (C1R-A01) that stably expresses HLA-A*0101 was used as a stimulator cell. A cDNA encoding the open-reading frame of HLA-A*0101 was amplified by PCR and cloned into an expression vector. C1R cells were transfected with the expression vector, and then selected using G418 (Invitrogen) for two weeks. The G418-selected cells were seeded into wells containing G418-added culture medium in a 96-well plate, and further cultured for 30 days. The exogenous HLA-A*0101 expression in C1R cells was verified by flow cytometric analysis.
Monocyte-derived dendritic cells (DCs) were used as the antigen-presenting cell to induce a cytotoxic T lymphocyte (CTL) response against peptides presented on human leukocyte antigens (HLAs). As described in the other sections, DCs were generated in vitro (Nakahara S et al., Cancer Res 2003, 63(14): 4112-8). Specifically, peripheral-blood mononuclear cells isolated from healthy volunteers (HLA-A*0101-positive) with the Ficoll-Paque plus solution (Pharmacia) were separated by attaching to plastic tissue culture dishes (Becton Dickinson) and concentrated as a monocyte fraction. The monocyte-concentrated population was cultured in the presence of 1000 IU/ml granulocyte macrophage colony-stimulating factor (R&D System) and 1000 IU/ml interleukin(IL)-4 (R&D System) in an AIM-V medium (Invitrogen) containing 2% heat-inactivated autologous serum (AS). After seven days of culturing, the cytokine-induced DCs were pulsed with 20 micro-g/ml each of the synthesized peptides in an AIM-V medium at 37 degrees C. for three hours in the presence of 3 micro-g/ml beta 2-microglobulin. Next, these peptide-pulsed DCs were inactivated by X-ray irradiation (20 Gy), and mixed in a 1:20 ratio with autologous CD8^+ T cells obtained by positive selection using the CD8 Positive Isolation Kit (Dynal). These culture products were seeded in a 48-well plate (Corning). Each well was made to contain 1.5×10^4 peptide-pulsed DCs, 3×10^5 CD8^+ T cells and 10 ng/ml IL-7 (R&D System) in 0.5 ml of the AIM-V/2% AS medium. Three days later, these culture products were added with a final concentration of 20 IU/ml IL-2 (CHIRON). On day 7 and day 14, T cells were further stimulated with peptide-pulsed autologous DCs. The DCs were prepared every time by the same method as above. On day 21, after the third peptide stimulation, CTL activities were examined against the peptide-pulsed C1R-A01 cells (Tanaka H et al., Br J Cancer 2001, 84(1): 94-9; Umano Y et al., Br J Cancer 2001, 84(8): 1052-7; Uchida N et al., Clin Cancer Res 2004, 10(24): 8577-86; Suda T et al., Cancer Sci 2006, 97(5): 411-9; Watanabe T et al., Cancer Sci 2005, 96(8): 498-506).
(§1) Specifically, peptide-pulsed C1R-A01 (1×10^4 cells/well) was prepared as the stimulator cell. The induced CTLs, i.e., CTL lines and CTL clones, were used as the responder cell. The IFN-gamma ELISPOT assay and IFN-gamma ELISA were performed according to the manufacturer's manual.

peptide-pulsed C1R-A01 [2] = assay: IFN-gamma ELISA of CTL lines and CTL clone (HLA-A*0101); assay type: cell-based, human
Description: CTLs were propagated in culture using methods similar to those disclosed by Riddell et al. (Walter E A et al., N Engl J Med 1995, 333(16): 1038-44; Riddell S R et al., Nat Med 1996, 2(2): 216-23). The CTLs were co-cultured in a total of 25 ml AIM-V medium containing 5% AS and 40 ng/ml anti-CD3 antibody with two types of Mitomycin C-treated human B lymphoblastoid cell lines at 5×10^6 cells. One day after beginning of the culturing, 120 IU/ml IL-2 was added to the culture. On days 5, 8 and 11, a fresh AIM-V/5% AS medium containing 30 IU/ml IL-2 was added to the culture (Tanaka H et al., Br J Cancer 2001, 84(1): 94-9; Umano Y et al., Br J Cancer 2001, 84(8): 1052-7; Uchida N et al., Clin Cancer Res 2004, 10(24): 8577-86; Suda T et al., Cancer Sci 2006, 97(5): 411-9; Watanabe T et al., Cancer Sci 2005, 96(8): 498-506).
CTLs were seeded to make 1 or 10 cells/well in 96 round-bottomed microtiter plates (Nalge Nunc International). The CTLs were co-cultured with two types of Mitomycin C-treated human B lymphoblastoid cell lines at 1×10^4 cells in a total of 150 micro-1/well 5% AS-containing AIM-V medium with 30 ng/ml anti-CD3 antibody and 125 IU/ml IL-2. Ten days later, 50 micro-1 of IL-2 was added to the medium to reach a final IL-2 concentration of 125 IU/ml. On day 14, the CTL activity was tested, and the CTL clones were propagated using the same method as described above (Uchida N et al., Clin Cancer Res 2004, 10(24): 8577-86; Suda T et al., Cancer Sci 2006, 97(5): 411-9; Watanabe T et al., Cancer Sci 2005, 96(8): 498-506).
as §1

[3] = system: COS7 cells transfected with both KOC1 and HLA-A*0101; assay: Specific CTL activity against target cells expressing KOC1 and HLA-A*0101; assay type: cell-based, African green monkey; conditions: listed as KOC1-A01-9-96
Description: as §1
A cDNA encoding the open-reading frame of a target gene or HLA-A*0101 was amplified by PCR. The PCR-amplified product was cloned into an expression vector. Expression vectors were transfected using Lipofectamine 2000 (Invitrogen) following the manufacturer's recommended protocol. Two days after transfection, the transfected cells were harvested using versene (Invitrogen), and used as the stimulator cell for CTL activity assay (5×10^4 cells/well).
The CTL clone established against KOC1-A01-9-96 (SEQ ID NO: 86) was investigated for its ability to recognize target cells expressing KOC1 and the HLA-A*0101 molecule. COS7 cells transfected with both full-length KOC1 and the HLA-A*0101 gene (a specific model of target cells expressing KOC1 and the HLA-A*0101 gene) were prepared as the target cell. COS7 cells transfected with either full-length KOC1 or HLA-A*0101 were prepared as the control.

VLDSLLVQY (a peptide derived from KOC1) [SEQ ID NO: 86]
peptide-specific CTL activity (IFN-gamma production), ELISPOT (peptide-pulsed C1R-A01 [1]): potent IFN-gamma production
IFN-gamma production of CTL clone, ELISA (peptide-pulsed C1R-A01 [2]; CTL clone by limiting dilution, peptide-pulsed C1R-A01, listed as KOC1-A01-9-96): Potent IFN-gamma production
IFN-gamma production of CTL lines, ELISA (peptide-pulsed C1R-A01 [2]; CTL lines, target cells pulsed with the peptide vs not pulsed, C1R-A01): potent IFN-gamma production
specific CTL activity of CTL clone against target cells expressing KOC1 and HLA-A*0101 ([3]; COS7 transfected with both full-length KOC1 and HLA-A*0101): specific CTL activity; also recorded: potent CTL activities
specific CTL activity of CTL clone against control cells ([3]; COS7 transfected with either full-length KOC1 or HLA-A*0101): a significant specific CTL activity was not shown; also recorded: a significant specific CTL activity was not detected
